Source: BindingDB's records for doi:10.1016/j.bmcl.2015.06.096 (Vanderbilt University Medical Center, 2015)

Biological target: Metabotropic glutamate receptor 5 (Homo sapiens, UniProt P41594)
Test: Positive allosteric modulation of human mGlu5 receptor expressed in HEK293 cells by calcium mobilization assay

Metabotropic glutamate receptor 5, sequence (P41594 whole entry): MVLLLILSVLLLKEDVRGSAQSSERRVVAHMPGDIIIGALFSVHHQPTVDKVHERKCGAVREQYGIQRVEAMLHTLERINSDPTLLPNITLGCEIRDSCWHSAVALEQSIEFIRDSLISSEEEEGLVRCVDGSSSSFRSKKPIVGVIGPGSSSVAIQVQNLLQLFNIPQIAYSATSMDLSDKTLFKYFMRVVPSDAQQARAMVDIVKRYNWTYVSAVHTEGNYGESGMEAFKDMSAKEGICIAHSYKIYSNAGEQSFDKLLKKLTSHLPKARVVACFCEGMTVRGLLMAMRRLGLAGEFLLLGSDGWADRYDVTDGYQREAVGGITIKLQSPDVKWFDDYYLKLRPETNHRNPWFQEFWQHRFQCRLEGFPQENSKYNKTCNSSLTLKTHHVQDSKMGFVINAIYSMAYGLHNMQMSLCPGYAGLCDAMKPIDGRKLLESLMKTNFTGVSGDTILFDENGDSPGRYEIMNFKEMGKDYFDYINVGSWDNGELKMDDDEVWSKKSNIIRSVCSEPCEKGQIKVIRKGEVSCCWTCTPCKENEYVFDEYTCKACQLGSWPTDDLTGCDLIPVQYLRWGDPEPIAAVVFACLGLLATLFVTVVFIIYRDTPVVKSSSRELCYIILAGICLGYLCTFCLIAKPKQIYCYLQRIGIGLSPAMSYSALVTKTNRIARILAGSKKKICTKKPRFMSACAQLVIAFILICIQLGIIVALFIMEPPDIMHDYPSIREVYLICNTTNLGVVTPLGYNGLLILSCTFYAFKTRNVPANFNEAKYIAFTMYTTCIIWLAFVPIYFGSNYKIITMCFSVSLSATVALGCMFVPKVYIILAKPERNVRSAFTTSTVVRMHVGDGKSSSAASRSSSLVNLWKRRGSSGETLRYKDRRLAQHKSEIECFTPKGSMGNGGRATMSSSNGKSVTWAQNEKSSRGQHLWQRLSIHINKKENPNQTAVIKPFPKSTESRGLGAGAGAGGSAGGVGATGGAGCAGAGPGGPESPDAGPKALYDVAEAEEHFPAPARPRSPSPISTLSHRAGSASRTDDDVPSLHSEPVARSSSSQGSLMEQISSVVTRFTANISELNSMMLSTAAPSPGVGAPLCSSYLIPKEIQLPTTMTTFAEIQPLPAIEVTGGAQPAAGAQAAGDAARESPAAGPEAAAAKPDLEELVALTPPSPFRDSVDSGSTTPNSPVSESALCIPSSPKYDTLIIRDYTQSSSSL

EC50: 323 nM
SMILES: O=C(c1c(F)cccc1F)N1CCc2nc(COc3cccc(F)c3)oc2C1
